Experimental data published in the NIST ThermoML archive (doi:10.1016/j.tca.2018.08.012).
± gives the expanded uncertainty stated by the source.

Conditions: DSC

Structure (SMILES) | Triple point temperature (Crystal 1) [K] | Triple point temperature (Crystal 2) [K] | Triple point temperature (Crystal) [K]
c1ccc2c(c1)CN(c1ccc(Cc3ccc(N4COc5ccccc5C4)cc3)cc1)CO2 [bis(4-(2H-benzo[e][1,3]oxazin-3(4H)-yl)phenyl)methane] | 357.15 ± 10 | 328.15 ± 10 | –
Cc1ccc2c(c1)CN(c1ccc(Cc3ccc(N4COc5ccc(C)cc5C4)cc3)cc1)CO2 | 432.15 ± 10 | – | –
Cc1ccc2c(c1)OCN(c1ccc(Cc3ccc(N4COc5cc(C)ccc5C4)cc3)cc1)C2 | – | – | 435.15 ± 10
Cc1cc(C)c2c(c1)CN(c1ccc(Cc3ccc(N4COc5c(C)cc(C)cc5C4)cc3)cc1)CO2 | 406.15 ± 10 | 390.15 ± 10 | –
